Positions of bridges follow the written chain, without caps; N, C: chain ends. Non-standard residues stand in square brackets, D forms with d. Residues, ends and D or L forms follow the SMILES beside them. ξ: configuration not given here. Cit = NC(=O)NCCC[C@H](N)C(=O)O; Ile(3ξ) = CCC(C)[C@H](N)C(=O)O; Ahp(2) = CCCCC[C@H](N)C(=O)O; NMeNle = CCCC[C@H](NC)C(=O)O; Tle = CC(C)(C)[C@H](N)C(=O)O; NHexGly = CCCCCCNCC(=O)O; Nle = CCCC[C@H](N)C(=O)O; Orn = NCCC[C@H](N)C(=O)O
Biological target: T1, mouse VISTA (mVISTA) (Mus musculus, UniProt Q9D659)
T1 construct: expressed in transfected cells; host or cells: Human embryonic kidney 293T cells
T1 sequence (Q9D659 33-308): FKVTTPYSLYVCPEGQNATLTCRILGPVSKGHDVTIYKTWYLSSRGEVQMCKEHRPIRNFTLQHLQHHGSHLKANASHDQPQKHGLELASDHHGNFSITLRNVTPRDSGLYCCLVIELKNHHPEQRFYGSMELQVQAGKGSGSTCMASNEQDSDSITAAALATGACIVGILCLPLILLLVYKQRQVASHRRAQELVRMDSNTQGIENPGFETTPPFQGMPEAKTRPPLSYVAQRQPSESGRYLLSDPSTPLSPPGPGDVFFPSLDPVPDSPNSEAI
Test: Cell-Based Binding High-Content Assay For mVISTA (HC CBA mVISTA)
Conditions: read-out: HC CBA mVISTA IC50
In short: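 Read-out: Alexa 647–streptavidin signal imaged on fixed, Hoechst-stained mVISTA-293T cells, with IC50 taken from a four-parameter logistic curve. Compounds competed with 2 nM biotinylated peptide for 30 min at room temperature, tested under both no-wash and wash (1 h compound, media exchange, 1 h) formats.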

Row | SMILES | IC50 [nM]
1 | CCCCCCN1CC(=O)N[C@@H](Cc2ccc(O)cc2)C(=O)N[C@@H](CCCC)C(=O)N[C@@H](CC(N)=O)C(=O)N[C@@H](CCCN)C(=O)N(C)[C@@H](CCCC)C(=O)N[C@@H](CCCCC)C(=O)N2CCC[C@H]2C(=O)N[C@@H](C(C)(C)C)C(=O)N[C@@H](CO)C(=O)N[C@H](C(=O)N[C@@H](CC(=O)O)C(N)=O)CSCC(=O)N[C@@H](Cc2ccccc2)C(=O)N[C@@H](Cc2c[nH]c3ccccc23)C(=O)N[C@@H](CC(=O)O)C1=O [Example 1374] ({CH2CO}-FWD[NHexGly]Y[Nle]N[Orn][NMeNle][Ahp(2)]P[Tle]SCD-NH2; thioether N-14) | 24.9
2 | CCCCCCN1CC(=O)N[C@@H](Cc2ccc(O)cc2)C(=O)N[C@@H](CCCC)C(=O)N[C@@H](CC(=O)O)C(=O)N[C@@H](CCCNC(=N)N)C(=O)N(C)[C@@H](CCCC)C(=O)N[C@@H](CCCCC)C(=O)N2CCC[C@H]2C(=O)N[C@@H](C(C)(C)C)C(=O)N[C@@H](CO)C(=O)N[C@H](C(=O)N[C@@H](CC(=O)O)C(N)=O)CSCC(=O)N[C@@H](Cc2ccccc2)C(=O)N[C@@H](Cc2c[nH]c3ccccc23)C(=O)N[C@@H](CC(=O)O)C1=O [Example 1375] ({CH2CO}-FWD[NHexGly]Y[Nle]DR[NMeNle][Ahp(2)]P[Tle]SCD-NH2; thioether N-14) | 42.5
3 | CCCCCCN1CC(=O)N[C@@H](Cc2ccc(O)cc2)C(=O)N[C@@H](CCCC)C(=O)N[C@@H](CC(=O)O)C(=O)N[C@@H](CCCN)C(=O)N(C)[C@@H](CCCC)C(=O)N[C@@H](CCCCC)C(=O)N2CCC[C@H]2C(=O)N[C@@H](C(C)(C)C)C(=O)N[C@@H](CO)C(=O)N[C@H](C(=O)N[C@@H](CC(=O)O)C(N)=O)CSCC(=O)N[C@@H](Cc2ccccc2)C(=O)N[C@@H](Cc2c[nH]c3ccccc23)C(=O)N[C@@H](CC(=O)O)C1=O [Example 1376] ({CH2CO}-FWD[NHexGly]Y[Nle]D[Orn][NMeNle][Ahp(2)]P[Tle]SCD-NH2; thioether N-14) | 36.6
4 | CCCCCCN1CC(=O)N[C@@H](Cc2ccc(O)cc2)C(=O)N[C@@H](CCCC)C(=O)N[C@@H](CC(N)=O)C(=O)N[C@@H](CCCNC(=N)N)C(=O)N(C)[C@@H](CCCC)C(=O)N[C@@H](CCCCC)C(=O)N2CCC[C@H]2C(=O)N[C@@H](C(C)C)C(=O)N[C@@H](CCCNC(=N)N)C(=O)N[C@H](C(=O)NCC(=O)O)CSCC(=O)N[C@@H](Cc2ccccc2)C(=O)N[C@@H](Cc2c[nH]c3ccccc23)C(=O)N[C@@H](CC(=O)O)C1=O [Example 1380] ({CH2CO}-FWD[NHexGly]Y[Nle]NR[NMeNle][Ahp(2)]PVRCG-OH; thioether N-14) | 12.1
5 | CCCCCCN1CC(=O)N[C@@H](Cc2ccc(O)cc2)C(=O)N[C@@H](CCCC)C(=O)N[C@@H](CC(N)=O)C(=O)N[C@@H](CCCNC(=N)N)C(=O)N(C)[C@@H](CCCC)C(=O)N[C@@H](CCCCC)C(=O)N2CCC[C@H]2C(=O)N[C@@H](C(C)C)C(=O)N[C@@H](CC(N)=O)C(=O)N[C@H](C(=O)NCC(=O)O)CSCC(=O)N[C@@H](Cc2ccccc2)C(=O)N[C@@H](Cc2c[nH]c3ccccc23)C(=O)N[C@@H](CC(=O)O)C1=O [Example 1381] ({CH2CO}-FWD[NHexGly]Y[Nle]NR[NMeNle][Ahp(2)]PVNCG-OH; thioether N-14) | 20.3
6 | CCCCCCN1CC(=O)N[C@@H](Cc2ccc(O)cc2)C(=O)N[C@@H](CCCC)C(=O)N[C@@H](CC(N)=O)C(=O)N[C@@H](CCCNC(=N)N)C(=O)N(C)[C@@H](CCCC)C(=O)N[C@@H](CCCCC)C(=O)N2CCC[C@H]2C(=O)N[C@@H](C(C)C)C(=O)N[C@@H](C(C)C)C(=O)N[C@H](C(=O)NCC(=O)O)CSCC(=O)N[C@@H](Cc2ccccc2)C(=O)N[C@@H](Cc2c[nH]c3ccccc23)C(=O)N[C@@H](CC(=O)O)C1=O [Example 1383] ({CH2CO}-FWD[NHexGly]Y[Nle]NR[NMeNle][Ahp(2)]PVVCG-OH; thioether N-14) | 16.9
7 | CCCCCCN1CC(=O)N[C@@H](Cc2ccc(O)cc2)C(=O)N[C@@H](CCCCC)C(=O)N[C@@H](CC(N)=O)C(=O)N[C@@H](CCCNC(=N)N)C(=O)N(C)[C@@H](CCCC)C(=O)N[C@@H](CCCCC)C(=O)N2CCC[C@H]2C(=O)N[C@@H](C(C)C)C(=O)N[C@@H](CO)C(=O)N[C@H](C(=O)NCC(=O)O)CSCC(=O)N[C@@H](Cc2ccccc2)C(=O)N[C@@H](Cc2c[nH]c3ccccc23)C(=O)N[C@@H](CC(=O)O)C1=O [Example 1384] ({CH2CO}-FWD[NHexGly]Y[Ahp(2)]NR[NMeNle][Ahp(2)]PVSCG-OH; thioether N-14) | 10.9
8 | CCCCCCN1CC(=O)N[C@@H](Cc2ccc(O)cc2)C(=O)N[C@@H](CCCCC)C(=O)N[C@@H](CC(N)=O)C(=O)N[C@@H](CCCNC(=N)N)C(=O)N(C)[C@@H](CCCC)C(=O)N[C@@H](CCCCC)C(=O)N2CCC[C@H]2C(=O)N[C@@H](C(C)C)C(=O)N[C@@H](C(C)C)C(=O)N[C@H](C(=O)NCC(=O)O)CSCC(=O)N[C@@H](Cc2ccccc2)C(=O)N[C@@H](Cc2c[nH]c3ccccc23)C(=O)N[C@@H](CC(=O)O)C1=O [Example 1385] ({CH2CO}-FWD[NHexGly]Y[Ahp(2)]NR[NMeNle][Ahp(2)]PVVCG-OH; thioether N-14) | 10.5
9 | CCCCCCN1CC(=O)N[C@@H](Cc2ccc(O)cc2)C(=O)N[C@@H](CCCC)C(=O)N[C@@H](CC(N)=O)C(=O)N[C@@H](CCCNC(N)=O)C(=O)N(C)[C@@H](CCCC)C(=O)N[C@@H](CCCCC)C(=O)N2CCC[C@H]2C(=O)N[C@@H](C(C)C)C(=O)N[C@@H](CC(=O)O)C(=O)N[C@H](C(=O)NCC(=O)O)CSCC(=O)N[C@@H](Cc2ccccc2)C(=O)N[C@@H](Cc2c[nH]c3ccccc23)C(=O)N[C@@H](CC(=O)O)C1=O [Example 1387] ({CH2CO}-FWD[NHexGly]Y[Nle]N[Cit][NMeNle][Ahp(2)]PVDCG-OH; thioether N-14) | 5.3

More lines, in order of falling IC50, values ahead:

Row | IC50 [nM] | SMILES
10 | 41.3 | CCCCCCN1CC(=O)N[C@@H](Cc2ccc(O)cc2)C(=O)N[C@@H](CCCC)C(=O)N[C@@H](CC(N)=O)C(=O)N[C@@H](CCCNC(=N)N)C(=O)N(C)[C@@H](CCCC)C(=O)N[C@@H](CCCCC)C(=O)N2CCC[C@H]2C(=O)N[C@@H](C(C)(C)C)C(=O)N[C@@H](CO)C(=O)N[C@H](C(=O)N[C@@H](CC(=O)O)C(N)=O)CSCC(=O)N[C@@H](Cc2ccccc2)C(=O)N[C@@H](Cc2c[nH]c3ccccc23)C(=O)N[C@@H](CC(=O)O)C1=O [Example 1378] ({CH2CO}-FWD[NHexGly]Y[Nle]NR[NMeNle][Ahp(2)]P[Tle]SCD-NH2; thioether N-14)
11 | 22.2 | CCCCCCN1CC(=O)N[C@@H](Cc2ccc(O)cc2)C(=O)N[C@@H](CCCC)C(=O)N[C@@H](CC(=O)O)C(=O)N[C@@H](CCCNC(=N)N)C(=O)N(C)[C@@H](CCCC)C(=O)N[C@@H](CCCCC)C(=O)N2CCC[C@H]2C(=O)N[C@@H](C(C)(C)C)C(=O)N[C@@H](CC(=O)O)C(=O)N[C@H](C(=O)N[C@@H](CC(=O)O)C(N)=O)CSCC(=O)N[C@@H](Cc2ccccc2)C(=O)N[C@@H](Cc2c[nH]c3ccccc23)C(=O)N[C@@H](CC(=O)O)C1=O [Example 1377] ({CH2CO}-FWD[NHexGly]Y[Nle]DR[NMeNle][Ahp(2)]P[Tle]DCD-NH2; thioether N-14)
12 | 17.2 | CCCCCCN1CC(=O)N[C@@H](Cc2ccc(O)cc2)C(=O)N[C@@H](CCCC)C(=O)N[C@@H](CC(N)=O)C(=O)N[C@@H](CCCNC(=N)N)C(=O)N(C)[C@@H](CCCC)C(=O)N[C@@H](CCCCC)C(=O)N2CCC[C@H]2C(=O)N[C@@H](C(C)C)C(=O)N[C@@H](CO)C(=O)N[C@H](C(=O)NCC(=O)O)CSCC(=O)N[C@@H](Cc2ccccc2)C(=O)N[C@@H](Cc2c[nH]c3ccccc23)C(=O)N[C@@H](CC(=O)O)C1=O [Example 1382] ({CH2CO}-FWD[NHexGly]Y[Nle]NR[NMeNle][Ahp(2)]PVSCG-OH; thioether N-14)
13 | 16.4 | CCCCCCN1CC(=O)N[C@@H](Cc2ccc(O)cc2)C(=O)N[C@@H](CCCC)C(=O)N[C@@H](CC(N)=O)C(=O)N[C@@H](CCCNC(N)=O)C(=O)N(C)[C@@H](CCCC)C(=O)N[C@@H](CCCCC)C(=O)N2CCC[C@H]2C(=O)N[C@@H](C(C)CC)C(=O)N[C@@H](CO)C(=O)N[C@H](C(=O)NCC(N)=O)CSCC(=O)N[C@@H](Cc2ccccc2)C(=O)N[C@@H](Cc2c[nH]c3ccccc23)C(=O)N[C@@H](CC(=O)O)C1=O (stereo partly drawn) [Example 1388] ({CH2CO}-FWD[NHexGly]Y[Nle]N[Cit][NMeNle][Ahp(2)]P[Ile(3ξ)]SCG-NH2; thioether N-14)
14 | 8.8 | CCCCCCN1CC(=O)N[C@@H](Cc2ccc(O)cc2)C(=O)N[C@@H](CCCCC)C(=O)N[C@@H](CC(N)=O)C(=O)N[C@@H](CCCNC(=N)N)C(=O)N(C)[C@@H](CCCC)C(=O)N[C@@H](CCCCC)C(=O)N2CCC[C@H]2C(=O)N[C@@H](C(C)C)C(=O)N[C@@H](CC(=O)O)C(=O)N[C@H](C(=O)NCC(=O)O)CSCC(=O)N[C@@H](Cc2ccccc2)C(=O)N[C@@H](Cc2c[nH]c3ccccc23)C(=O)N[C@@H](CC(=O)O)C1=O [Example 1386] ({CH2CO}-FWD[NHexGly]Y[Ahp(2)]NR[NMeNle][Ahp(2)]PVDCG-OH; thioether N-14)
15 | 5.9 | CCCCCCN1CC(=O)N[C@@H](Cc2ccc(O)cc2)C(=O)N[C@@H](CCCC)C(=O)N[C@@H](CC(N)=O)C(=O)N[C@@H](CCCNC(=N)N)C(=O)N(C)[C@@H](CCCC)C(=O)N[C@@H](CCCCC)C(=O)N2CCC[C@H]2C(=O)N[C@@H](C(C)C)C(=O)N[C@@H](CC(=O)O)C(=O)N[C@H](C(=O)NCC(=O)O)CSCC(=O)N[C@@H](Cc2ccccc2)C(=O)N[C@@H](Cc2c[nH]c3ccccc23)C(=O)N[C@@H](CC(=O)O)C1=O [Example 1379] ({CH2CO}-FWD[NHexGly]Y[Nle]NR[NMeNle][Ahp(2)]PVDCG-OH; thioether N-14)

From US20240218022A1, “ANTI-VISTA MACROCYCLIC PEPTIDES AND COMPOSITIONS” (BRISTOL-MYERS SQUIBB COMPANY, priority 2022, published 2024)
